Holding throughout (assay type): biochemical
One experiment deals with T1, α-chymotrypsin (Bos taurus, UniProt P00766).
T1 construct: purchased Sigma Chem. Co. C-3142
The experiment can be described thus: Inhibition of α-chymotrypsin. Particulars: 0.03 mM Succ-Ala-Ala-Pro-Phe-AMC; for inhibition at 10 µM: pH 7.5, 10 μM, read-out: Chymotrypsin % I @; for Chymotrypsin % I @: 10 μM, pH 7.5. The method, then:
(§1) To evaluate inhibitory activity, stock solutions (40 times concentrated) of each compound to be tested were prepared in 100% anhydrous DMSO and 5 μL of each inhibitor preparation were aliquoted into each of three wells of a 96-well plate. Calpain I, prepared by a modification of the method of W. J. Lee et al. (Biochem. Internatl. 22: 163-171 (1990)), was diluted into assay buffer (i.e., 50 mM Tris, 50 mM NaCl, 1 mM EDTA, 1 mM EGTA, and 5 mM-mercaptoethanol, pH 7.5 including 0.2 mM Succ-Leu-Tyr-MNA) and 175 μL aliquoted into the same wells containing the independent inhibitor stocks as well as to positive control wells containing 5 μL DMSO, but no compound. To start the reaction, 20 μL of 50 mM CaCl2 in assay buffer was added to all wells of the plate, excepting three, which were used as background signal baseline controls. Substrate hydrolysis was monitored every 5 minutes for a total of 30 minutes using a Fluoroskan II fluorescence plate reader. Substrate hydrolysis in the absence of inhibitor was linear for up to 15 minutes.
(§2) Inhibition of calpain I activity was calculated as the percent decrease in the rate of substrate (S) hydrolysis in the presence of inhibitor (I) relative to the rate in its absence (o). Comparison between the inhibited and control rates was made within the linear range for substrate hydrolysis. For screening, compounds were tested at 10 μM. Compounds having 50% inhibition at 10 μM were considered active. The IC50s of inhibitors (concentration yielding 50% inhibition) were determined from the percent decrease in the rates of substrate hydrolysis in the presence of five to seven different concentrations of the test compound. The results were plotted as % inhibition versus log inhibitor concentration and the IC50 was calculated from linear regression of the data. Apparent second order rate constants were determined from analysis of reaction progress curves under pseudo-first order conditions. Each determination represents the means of three or more independent single cuvette analyses continually monitored via a Perkin-Elmer LS50B spectrofluorimeter. The rate of inhibition of hydrolysis was obtained by fitting the curve to the exponential equation (1):
(§3) Additionally, because α-chymotrypsin is not a calcium sensitive enzyme and is constitutively active, following addition of inhibitor stocks to the 96 well plates, 100 μl of a 2-fold concentrated stock of enzyme in dilution buffer was first added and the reaction started by addition of 100 μl of a 2-fold concentrated stock of substrate in assay buffer. Substrate hydrolysis was monitored every 5 minutes up to 30 minutes using a Fluoroskan II ([…]).

The next experiment concerns the target T2, Calpain I (Homo sapiens, UniProt P07384).
T2 construct: made in house
T2 sequence (P07384 1-714): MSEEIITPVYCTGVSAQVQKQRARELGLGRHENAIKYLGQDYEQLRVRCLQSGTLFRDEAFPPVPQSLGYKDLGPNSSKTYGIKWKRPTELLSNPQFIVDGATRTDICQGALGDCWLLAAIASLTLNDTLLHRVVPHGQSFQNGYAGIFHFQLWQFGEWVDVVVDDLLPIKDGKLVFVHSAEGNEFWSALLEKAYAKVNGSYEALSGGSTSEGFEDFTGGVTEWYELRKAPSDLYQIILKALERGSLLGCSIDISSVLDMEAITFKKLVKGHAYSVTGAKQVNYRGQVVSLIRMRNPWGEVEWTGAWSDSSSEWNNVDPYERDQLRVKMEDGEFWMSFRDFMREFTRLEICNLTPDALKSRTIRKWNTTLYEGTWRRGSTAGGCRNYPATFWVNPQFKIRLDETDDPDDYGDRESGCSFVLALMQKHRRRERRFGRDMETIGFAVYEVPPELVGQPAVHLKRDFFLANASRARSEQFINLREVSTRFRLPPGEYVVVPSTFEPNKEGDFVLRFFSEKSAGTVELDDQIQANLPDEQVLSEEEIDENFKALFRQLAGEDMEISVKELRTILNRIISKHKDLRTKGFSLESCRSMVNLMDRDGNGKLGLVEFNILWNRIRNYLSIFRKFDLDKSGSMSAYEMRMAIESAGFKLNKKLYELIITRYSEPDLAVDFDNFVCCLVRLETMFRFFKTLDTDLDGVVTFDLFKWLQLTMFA
T2 sequence (P04632 1-268 partner): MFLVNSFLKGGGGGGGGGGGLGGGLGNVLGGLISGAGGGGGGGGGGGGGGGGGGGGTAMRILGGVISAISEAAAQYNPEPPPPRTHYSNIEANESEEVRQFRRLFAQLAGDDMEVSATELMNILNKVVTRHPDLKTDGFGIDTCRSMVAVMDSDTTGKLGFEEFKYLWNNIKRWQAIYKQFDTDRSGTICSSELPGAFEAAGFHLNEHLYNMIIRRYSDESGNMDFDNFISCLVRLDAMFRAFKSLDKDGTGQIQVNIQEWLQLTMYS
The experiment can be described thus: Inhibition of calpain I activity (IC50, fluorescence plate reader). Conditions: substrate 0.2 mM Succ-Leu-Tyr-MNA, pH 7.5. As for the experimental part:
as §1
as §2, with “(1): […]” for “(1):”

For the next experiment, the target named is T3, cathepsin B (Homo sapiens, UniProt P07858).
T3 construct: purchased Calbiochem 219364
Put plainly: Inhibition of cathepsin B. Particulars: Cbz-Phe-Arg-AMC 0.1 mM; for Cat B % I @ 1 uM: pH 6.0; for inhibition at 1 µM: pH 6, 1 uM, read-out: Cat B % I @ 1 uM.

A further experiment addresses T4, thrombin (Homo sapiens, UniProt P00734).
T4 construct: purchased Sigma Chem. Co. T-7009
Put plainly: Inhibition of thrombin. Particulars: 25 μM Bz-Phe-Val-Arg-AMC; for inhibition at 10 µM: pH 7.5, read-out: Thrombin % I @ 10 uM. The method, then: as §1, §2, §3
Inhibition of thrombin (Sigma Chem. Co. Cat. #T-7009) was evaluated as described for chymotrypsin except that the assay was performed in 50 mM Tris, 10 mM CaCl2, pH 7.5 and the substrate was 25 μM Bz-Phe-Val-Arg-AMC (Bachem cat#I-1080).

The target of the next experiment is T5, cathepsin L (Homo sapiens, UniProt P07711).
T5 construct: purchased Calbiochem 219402
Put plainly: Inhibition of cathepsin L. Conditions: Cbz-Phe-Arg-AMC 0.006 mM; for Cat L % I @ 1 uM: pH 6.0; for inhibition at 1 µM: pH 6, 1 uM, read-out: Cat L % I @ 1 uM.

Structures are written as SMILES.

T5 sequence (P07711 114-288 limits assumed): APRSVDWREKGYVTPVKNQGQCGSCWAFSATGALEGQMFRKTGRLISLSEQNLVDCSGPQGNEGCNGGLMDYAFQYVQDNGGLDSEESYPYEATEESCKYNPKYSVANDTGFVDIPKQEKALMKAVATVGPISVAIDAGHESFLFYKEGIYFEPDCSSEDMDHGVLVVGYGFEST
T5 sequence (P07711 292-333 limits assumed): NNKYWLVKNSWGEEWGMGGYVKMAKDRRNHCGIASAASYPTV

The IC50 is the concentration at which inhibition is half-maximal. For `CC(C)CC(CC(=O)N1CCN(c2ccccc2)CC1)C(=O)N[C@H](C=O)CC(C)C` (single isomer, unassigned) [Compound 16g-I, Ph-Piperazine-COCH2 CH(iBu)CO-Leu-H], the inhibition at 10 µM on α-chymotrypsin and at thrombin was 0% each time. The compound also showed an IC50 against Calpain I of 227 nM. Moreover, the “Cat B % I @ 1 uM” value at cathepsin B amounted to 100%. For the same compound, the “Cat L % I @ 1 uM” value at cathepsin L was found to be 97%.

In the case of `CCNC(=O)C(=O)C(CC)NC(=O)C(CC(=O)C1c2ccccc2Oc2ccccc21)CC(C)C` (stereo not shown) [Compound 8d, Xanthene-COCH2 CH(iBu.)CO-Abu-CONHEt], the values for the inhibition at 10 µM at α-chymotrypsin and on thrombin were 7% and 10%, respectively. This compound had a half-inhibitory concentration (IC50) on Calpain I of 485 nM. Further, the inhibition at 1 µM at cathepsin B is 78%; at cathepsin L it was 100%.

As for `CCC(C(=O)CC(CC(C)C)C(=O)N[C@H](C=O)CC(C)C)c1ccccc1` (stereo partly shown) [Compound 16b, CH3 CH2 CH(Ph)COCH2 CH(iBu)CO-Leu-H], the values for the inhibition at 10 µM on α-chymotrypsin and at thrombin were 21% and 0%, respectively. Besides, half-maximal inhibition on Calpain I (IC50) was put at 55 nM. Moreover, the values for the inhibition at 1 µM on cathepsin B and on cathepsin L were 99% and 100%, respectively.

For `CC(C)CC(CC(=O)N1CCN(c2ccccc2)CC1)C(=O)N[C@H](C=O)CC(C)C` (single isomer, unassigned) [Compound 16g-II, Ph-Piperazine-COCH2 CH(iBu)CO-Leu-H], the “Chymotrypsin % I @” value at α-chymotrypsin worked out at 0%. Besides, it took 4500 nM to reach half-maximal inhibition on Calpain I (IC50). The “Cat B % I @ 1 uM” value at cathepsin B was 67%. Moreover, the “Thrombin % I @ 10 uM” value on thrombin (pH 7.5) is given as 0%. Besides, the “Cat L % I @ 1 uM” value on cathepsin L is 35%.

Turning to `CC(C)CC(CC(=O)C(c1ccccc1)c1ccccc1)C(=O)N[C@H](C=O)CC(C)C` (stereo partly shown) [Compound 16c, Ph2 CHCOCH2 CH(iBu)CO-Leu-H], the values for the inhibition at 10 µM on α-chymotrypsin and on thrombin were 62% and 1%, respectively. At Calpain I, inhibition was half-maximal at 50 nM (IC50). Further, the inhibition at 1 µM on cathepsin B was determined as 97%; at cathepsin L, 100%.

In the case of `CCNC(=O)C(=O)C(CC)NC(=O)C(CC(=O)[C@@H](CC)c1ccccc1)CC(C)C` (stereo partly shown) [Compound 8b, CH3 CH2 CH(Ph)COCH2 CH(iBu)CO-Abu-CONHEt], the inhibition at 10 µM on α-chymotrypsin and at thrombin was 0% in each case. On Calpain I, this compound displayed a 50% inhibitory concentration (IC50) of 6690 nM. In addition, the inhibition at 1 µM turned out to be 84% on cathepsin B and 98% on cathepsin L.

Take `CC(C)CC(CC(=O)N1CCc2ccccc2C1)C(=O)N[C@H](C=O)Cc1ccccc1` (single isomer, unassigned) [Compound 16f-I, 2-THIQ-COCH2 CH(iBu)Cd-Phe-H]: on α-chymotrypsin, the “Chymotrypsin % I @” value was found to be 39%. This compound gave an IC50 on Calpain I of 28 nM. Further, the “Cat B % I @ 1 uM” value on cathepsin B was determined as 100%. Also, at thrombin, the inhibition at 10 µM is 0%. In addition, the “Cat L % I @ 1 uM” value on cathepsin L is listed as 96%.

As for `CC(C)CC(CC(=O)C1c2ccccc2Oc2ccccc21)C(=O)N[C@H](C=O)CC(C)C` (stereo partly shown) [Compound 16d, Xanthene-COCH2 CH(iBu)CO-Leu-H], the inhibition at 10 µM worked out at 98% on α-chymotrypsin and 25% at thrombin. In addition, the inhibition at 1 µM is 76% on cathepsin B and 100% at cathepsin L.

For the compound `CCNC(=O)C(=O)C(CC)NC(=O)C(CC(=O)[C@H](CC(C)C)NC(=O)OCc1ccccc1)CC(C)C` (stereo partly shown) [Compound 8e, Z-Leu-CH2 CH(iBu)CO-Abu-CONHEt], the inhibition at 10 µM at α-chymotrypsin and at thrombin was 0% in each case. Further, the IC50 against Calpain I was found to be 380 nM. Further, the inhibition at 1 µM on cathepsin B came out at 100%; at cathepsin L it was 95%.

In the case of `CC(C)CC(CC(=O)CN(CC(C)C)C(=O)OCc1ccccc1)C(=O)N[C@H](C=O)CC(C)C` (stereo partly shown) [Compound 32, Z-N(iBu)CH2 COCH2 CH(iBu)CON H-Leu-H], on Calpain I, the half-inhibitory concentration (IC50) was found to be 71 nM.

For the compound `CC(C)CC(CC(=O)CCCCc1ccccc1)C(=O)N[C@H](C=O)CC(C)C` (stereo partly shown) [Compound 16a, Ph(CH2)4 COCH2 CH(iBu)CO-Leu-H], the inhibition at 10 µM at α-chymotrypsin came out at 61%; at thrombin it was 0%. For the same compound, the inhibition at 1 µM at cathepsin B came out at 97%; at cathepsin L, 100%.

Values taken from patent US6329377A, “Ketomethylene group-containing cysteine and serine protease inhibitors” (Cephalon, Inc., priority 2000, dated 2001).
